# How the values were obtained:
# [1] = target: T1, ABL1(T315I)-nonphosphorylated (Homo sapiens, UniProt P00519, T315I); experiment: KinomeScan; format: binding; conditions: read-out: % control
# T1 construct: purchased DiscoveRx KINOMEscan
# [2] = target: T2, EPHB1 (Homo sapiens, UniProt P54762); experiment: KinomeScan; format: binding; conditions: read-out: % control
# T2 construct: purchased DiscoveRx KINOMEscan
# [3] = target: T3, NEK2 (Homo sapiens, UniProt P51955); experiment: KinomeScan; format: binding; conditions: read-out: % control
# T3 construct: purchased DiscoveRx KINOMEscan
# [4] = test system: BaF3-FL-EGFR-L858R-T790M-C797S; experiment: Anti-proliferation, BaF3 isogenic cell lines (CellTiter-Glo); format: cell-based; conditions: Mus musculus, 72 hours, triplet testing
# [5] = target: T4, AAK1 (Homo sapiens, UniProt Q2M2I8); experiment: KinomeScan; format: binding; conditions: read-out: % control
# T4 construct: purchased DiscoveRx KINOMEscan
# [6] = target: T5, ADCK4 (Homo sapiens, UniProt Q96D53); experiment: KinomeScan; format: binding; conditions: read-out: % control
# T5 construct: purchased DiscoveRx KINOMEscan
# T5 sequence (Q96D53 whole entry): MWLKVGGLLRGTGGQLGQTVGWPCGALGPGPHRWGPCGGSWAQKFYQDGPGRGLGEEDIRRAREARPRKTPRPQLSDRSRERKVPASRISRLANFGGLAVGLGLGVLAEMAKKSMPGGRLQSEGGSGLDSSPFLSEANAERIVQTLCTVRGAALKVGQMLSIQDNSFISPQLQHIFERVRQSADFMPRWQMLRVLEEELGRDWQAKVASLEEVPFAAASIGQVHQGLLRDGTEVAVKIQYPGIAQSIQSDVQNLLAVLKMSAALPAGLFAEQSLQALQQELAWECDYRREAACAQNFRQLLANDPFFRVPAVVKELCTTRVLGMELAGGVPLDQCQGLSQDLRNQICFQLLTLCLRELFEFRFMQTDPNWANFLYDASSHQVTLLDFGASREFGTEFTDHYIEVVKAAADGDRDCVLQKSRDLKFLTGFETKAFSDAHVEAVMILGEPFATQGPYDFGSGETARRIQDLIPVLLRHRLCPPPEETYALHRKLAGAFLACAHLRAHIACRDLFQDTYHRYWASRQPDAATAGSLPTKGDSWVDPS
# [7] = target: T6, MAK (Homo sapiens, UniProt P20794); experiment: KinomeScan; format: binding; conditions: read-out: % control
# T6 construct: purchased DiscoveRx KINOMEscan
# [8] = target: T7, MST3 (Homo sapiens, UniProt Q9Y6E0); experiment: KinomeScan; format: binding; conditions: read-out: % control
# T7 construct: purchased DiscoveRx KINOMEscan
# T7 sequence (Q9Y6E0 whole entry): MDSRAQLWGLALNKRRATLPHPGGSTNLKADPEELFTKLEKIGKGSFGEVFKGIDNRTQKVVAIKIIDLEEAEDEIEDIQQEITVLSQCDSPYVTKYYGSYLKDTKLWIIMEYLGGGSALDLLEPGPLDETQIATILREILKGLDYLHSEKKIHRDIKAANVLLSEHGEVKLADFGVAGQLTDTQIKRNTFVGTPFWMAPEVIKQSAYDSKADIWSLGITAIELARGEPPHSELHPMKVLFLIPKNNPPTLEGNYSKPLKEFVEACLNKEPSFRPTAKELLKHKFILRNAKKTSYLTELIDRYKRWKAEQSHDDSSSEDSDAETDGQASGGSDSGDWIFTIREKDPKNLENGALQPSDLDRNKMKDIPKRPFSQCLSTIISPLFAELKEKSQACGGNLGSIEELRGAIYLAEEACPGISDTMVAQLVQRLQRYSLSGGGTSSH
# [9] = target: T8, MLK3 (Homo sapiens, UniProt Q16584); experiment: KinomeScan; format: binding; conditions: read-out: % control
# T8 construct: purchased DiscoveRx KINOMEscan
# [10] = target: T9, RIPK5 (Homo sapiens, UniProt Q6XUX3); experiment: KinomeScan; format: binding; conditions: read-out: % control
# T9 construct: purchased DiscoveRx KINOMEscan
# T9 sequence (Q6XUX3 whole entry): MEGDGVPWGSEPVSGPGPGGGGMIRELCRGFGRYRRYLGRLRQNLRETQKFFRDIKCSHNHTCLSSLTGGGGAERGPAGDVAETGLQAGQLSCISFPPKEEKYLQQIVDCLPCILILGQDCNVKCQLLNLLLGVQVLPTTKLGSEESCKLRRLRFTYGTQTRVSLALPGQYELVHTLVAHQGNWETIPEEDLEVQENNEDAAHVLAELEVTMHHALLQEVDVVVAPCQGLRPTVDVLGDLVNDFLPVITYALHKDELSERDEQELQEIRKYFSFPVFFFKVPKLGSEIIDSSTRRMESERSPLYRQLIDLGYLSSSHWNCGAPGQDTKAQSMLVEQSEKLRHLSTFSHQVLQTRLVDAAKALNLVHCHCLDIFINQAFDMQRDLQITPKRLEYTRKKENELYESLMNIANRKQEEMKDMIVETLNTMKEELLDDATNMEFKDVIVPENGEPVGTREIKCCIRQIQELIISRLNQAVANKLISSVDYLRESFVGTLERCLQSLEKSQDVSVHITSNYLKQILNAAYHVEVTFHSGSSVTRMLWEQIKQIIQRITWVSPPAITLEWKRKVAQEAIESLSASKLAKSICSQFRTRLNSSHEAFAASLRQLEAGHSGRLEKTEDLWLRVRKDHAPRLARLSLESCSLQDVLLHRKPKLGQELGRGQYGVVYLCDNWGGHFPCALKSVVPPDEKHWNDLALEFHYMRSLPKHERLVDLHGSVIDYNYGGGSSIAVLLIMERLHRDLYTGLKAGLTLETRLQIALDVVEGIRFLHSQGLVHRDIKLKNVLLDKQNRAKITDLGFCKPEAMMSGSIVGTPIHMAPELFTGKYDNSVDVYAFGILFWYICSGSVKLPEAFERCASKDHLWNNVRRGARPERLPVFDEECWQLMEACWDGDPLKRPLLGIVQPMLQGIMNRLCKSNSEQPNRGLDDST
# [11] = target: T10, FGR (Homo sapiens, UniProt P09769); experiment: KinomeScan; format: binding; conditions: read-out: % control
# T10 construct: purchased DiscoveRx KINOMEscan
# [12] = target: T11, FLT1 (Homo sapiens, UniProt P17948); experiment: KinomeScan; format: binding; conditions: read-out: % control
# T11 construct: purchased DiscoveRx KINOMEscan
# [13] = target: T12, ULK3 (Homo sapiens, UniProt Q6PHR2); experiment: KinomeScan; format: binding; conditions: read-out: % control
# T12 construct: purchased DiscoveRx KINOMEscan
# [14] = target: T13, AKT2 (Homo sapiens, UniProt P31751); experiment: KinomeScan; format: binding; conditions: read-out: % control
# T13 construct: purchased DiscoveRx KINOMEscan
# T13 sequence (P31751 whole entry): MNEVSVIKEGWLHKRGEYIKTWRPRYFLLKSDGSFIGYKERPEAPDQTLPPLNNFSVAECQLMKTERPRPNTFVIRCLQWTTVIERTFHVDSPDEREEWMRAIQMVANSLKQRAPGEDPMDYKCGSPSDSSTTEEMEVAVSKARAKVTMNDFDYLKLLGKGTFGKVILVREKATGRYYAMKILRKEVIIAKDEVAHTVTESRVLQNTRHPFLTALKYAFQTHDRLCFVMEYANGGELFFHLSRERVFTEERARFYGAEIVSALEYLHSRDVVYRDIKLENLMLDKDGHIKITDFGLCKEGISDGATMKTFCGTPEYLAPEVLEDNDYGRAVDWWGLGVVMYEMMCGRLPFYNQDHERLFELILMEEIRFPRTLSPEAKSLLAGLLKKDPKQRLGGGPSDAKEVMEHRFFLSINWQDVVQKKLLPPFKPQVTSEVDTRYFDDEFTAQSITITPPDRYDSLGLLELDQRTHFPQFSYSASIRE
# [15] = test system: FLT3(ITD,D835V); experiment: KinomeScan; format: binding; conditions: 1μM
# [16] = target: T14, FLT3(R834Q) (Homo sapiens, UniProt P36888, R834Q); experiment: KinomeScan; format: binding; conditions: read-out: % control
# T14 construct: purchased DiscoveRx KINOMEscan
# [17] = target: T15, ABL1(H396P)-nonphosphorylated (Homo sapiens, UniProt P00519, H396P); experiment: KinomeScan; format: binding; conditions: read-out: % control
# T15 construct: purchased DiscoveRx KINOMEscan
# [18] = target: T16, MAP3K4 (Homo sapiens, UniProt Q9Y6R4); experiment: KinomeScan; format: binding; conditions: read-out: % control
# T16 construct: purchased DiscoveRx KINOMEscan
# [19] = target: T17, ACVR2A (Homo sapiens, UniProt P27037); experiment: KinomeScan; format: binding; conditions: read-out: % control
# T17 construct: purchased DiscoveRx KINOMEscan
# T17 sequence (P27037 20-513): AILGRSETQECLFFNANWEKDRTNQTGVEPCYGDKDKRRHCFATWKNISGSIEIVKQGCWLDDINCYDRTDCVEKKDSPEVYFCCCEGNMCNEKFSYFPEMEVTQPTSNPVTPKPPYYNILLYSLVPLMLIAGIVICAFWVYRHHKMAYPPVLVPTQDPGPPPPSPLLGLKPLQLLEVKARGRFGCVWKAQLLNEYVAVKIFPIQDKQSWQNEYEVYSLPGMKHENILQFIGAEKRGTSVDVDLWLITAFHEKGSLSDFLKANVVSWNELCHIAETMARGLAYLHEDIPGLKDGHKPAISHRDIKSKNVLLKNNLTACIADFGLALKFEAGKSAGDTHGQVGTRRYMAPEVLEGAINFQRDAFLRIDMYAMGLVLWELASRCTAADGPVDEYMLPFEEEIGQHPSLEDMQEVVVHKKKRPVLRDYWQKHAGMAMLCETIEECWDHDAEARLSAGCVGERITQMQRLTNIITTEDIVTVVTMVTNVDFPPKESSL
# [20] = test system: BaF3-TEL-EGFR-T790M; experiment: Anti-proliferation, BaF3 isogenic cell lines (CellTiter-Glo); format: cell-based; conditions: Mus musculus, 72 hours, triplet testing
# [21] = target: T18, BUB1 (Homo sapiens, UniProt O43683); experiment: KinomeScan; format: binding; conditions: read-out: % control
# T18 construct: purchased DiscoveRx KINOMEscan
# [22] = target: T19, SgK110 (Homo sapiens, UniProt P0C264); experiment: KinomeScan; format: binding; conditions: read-out: % control
# T19 construct: purchased DiscoveRx KINOMEscan
# [23] = target: T20, ERBB3 (Homo sapiens, UniProt P21860); experiment: KinomeScan; format: binding; conditions: read-out: % control
# T20 construct: purchased DiscoveRx KINOMEscan
# [24] = target: T21, ABL1-nonphosphorylated (Homo sapiens, UniProt P00519); experiment: KinomeScan; format: binding; conditions: read-out: % control
# T21 construct: purchased DiscoveRx KINOMEscan
# [25] = target: T22, DRAK2 (Homo sapiens, UniProt O94768); experiment: KinomeScan; format: binding; conditions: read-out: % control
# T22 construct: purchased DiscoveRx KINOMEscan
# [26] = target: T23, ALK(C1156Y) (Homo sapiens, UniProt Q9UM73, C1156Y); experiment: KinomeScan; format: binding; conditions: read-out: % control
# T23 construct: purchased DiscoveRx KINOMEscan
# [27] = test system: BaF3-FL-EGFR-L858R-T790M; experiment: Anti-proliferation, BaF3 isogenic cell lines (CellTiter-Glo); format: cell-based; conditions: Mus musculus, 72 hours, triplet testing
# [28] = target: T24, KIT(D816H) (Homo sapiens, UniProt P10721, D816H); experiment: KinomeScan; format: binding; conditions: read-out: % control
# T24 construct: purchased DiscoveRx KINOMEscan
# T24 sequence (P10721 26-976 D816H): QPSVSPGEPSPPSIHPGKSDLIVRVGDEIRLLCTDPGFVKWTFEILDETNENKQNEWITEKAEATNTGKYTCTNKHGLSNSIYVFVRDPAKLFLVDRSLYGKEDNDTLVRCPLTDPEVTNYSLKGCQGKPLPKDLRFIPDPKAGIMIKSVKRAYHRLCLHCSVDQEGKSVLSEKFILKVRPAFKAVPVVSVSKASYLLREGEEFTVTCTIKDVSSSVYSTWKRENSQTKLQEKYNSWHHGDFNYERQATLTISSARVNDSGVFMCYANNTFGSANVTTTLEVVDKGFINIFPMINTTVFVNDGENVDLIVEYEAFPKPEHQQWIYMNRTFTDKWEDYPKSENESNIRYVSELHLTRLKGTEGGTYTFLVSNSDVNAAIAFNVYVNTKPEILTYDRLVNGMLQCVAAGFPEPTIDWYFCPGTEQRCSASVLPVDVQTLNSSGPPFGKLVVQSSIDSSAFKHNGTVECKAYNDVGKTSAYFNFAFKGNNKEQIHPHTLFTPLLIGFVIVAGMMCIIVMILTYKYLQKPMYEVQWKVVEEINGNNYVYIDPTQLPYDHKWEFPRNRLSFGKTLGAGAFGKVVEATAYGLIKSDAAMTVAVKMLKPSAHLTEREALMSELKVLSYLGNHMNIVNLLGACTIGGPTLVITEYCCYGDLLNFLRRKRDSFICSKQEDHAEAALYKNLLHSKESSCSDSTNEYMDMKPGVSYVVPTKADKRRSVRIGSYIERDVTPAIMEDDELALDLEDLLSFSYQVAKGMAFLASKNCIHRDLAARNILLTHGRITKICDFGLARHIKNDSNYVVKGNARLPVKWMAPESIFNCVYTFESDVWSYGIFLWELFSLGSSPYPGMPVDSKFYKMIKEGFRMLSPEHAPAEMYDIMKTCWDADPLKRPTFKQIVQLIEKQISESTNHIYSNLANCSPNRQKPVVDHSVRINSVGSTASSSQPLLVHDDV
# [29] = target: T25, MELK (Homo sapiens, UniProt Q14680); experiment: KinomeScan; format: binding; conditions: read-out: % control
# T25 construct: purchased DiscoveRx KINOMEscan
# [30] = test system: FLT3(ITD,F691L); experiment: KinomeScan; format: binding; conditions: 1μM
# [31] = target: T26, WNK2 (Homo sapiens, UniProt Q9Y3S1); experiment: KinomeScan; format: binding; conditions: read-out: % control
# T26 construct: purchased DiscoveRx KINOMEscan
# [32] = target: T27, DRAK1 (Homo sapiens, UniProt Q9UEE5); experiment: KinomeScan; format: binding; conditions: read-out: % control
# T27 construct: purchased DiscoveRx KINOMEscan
# T27 sequence (Q9UEE5 whole entry): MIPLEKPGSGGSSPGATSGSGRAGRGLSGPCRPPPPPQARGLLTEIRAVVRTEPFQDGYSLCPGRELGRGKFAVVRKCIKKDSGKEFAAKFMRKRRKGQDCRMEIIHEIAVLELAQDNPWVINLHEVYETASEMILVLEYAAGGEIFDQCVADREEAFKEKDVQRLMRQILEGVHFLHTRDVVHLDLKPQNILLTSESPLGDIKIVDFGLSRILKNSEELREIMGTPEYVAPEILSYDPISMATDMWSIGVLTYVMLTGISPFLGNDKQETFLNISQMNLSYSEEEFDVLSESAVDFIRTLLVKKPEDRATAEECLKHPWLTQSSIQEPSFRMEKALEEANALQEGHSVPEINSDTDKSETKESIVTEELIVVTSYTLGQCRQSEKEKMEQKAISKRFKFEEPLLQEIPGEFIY
# [33] = target: T28, ERK3 (Homo sapiens, UniProt Q16659); experiment: KinomeScan; format: binding; conditions: read-out: % control
# T28 construct: purchased DiscoveRx KINOMEscan
# [34] = target: T29, TAK1 (Homo sapiens, UniProt O43318); experiment: KinomeScan; format: binding; conditions: read-out: % control
# T29 construct: purchased DiscoveRx KINOMEscan
# T29 sequence (O43318 whole entry): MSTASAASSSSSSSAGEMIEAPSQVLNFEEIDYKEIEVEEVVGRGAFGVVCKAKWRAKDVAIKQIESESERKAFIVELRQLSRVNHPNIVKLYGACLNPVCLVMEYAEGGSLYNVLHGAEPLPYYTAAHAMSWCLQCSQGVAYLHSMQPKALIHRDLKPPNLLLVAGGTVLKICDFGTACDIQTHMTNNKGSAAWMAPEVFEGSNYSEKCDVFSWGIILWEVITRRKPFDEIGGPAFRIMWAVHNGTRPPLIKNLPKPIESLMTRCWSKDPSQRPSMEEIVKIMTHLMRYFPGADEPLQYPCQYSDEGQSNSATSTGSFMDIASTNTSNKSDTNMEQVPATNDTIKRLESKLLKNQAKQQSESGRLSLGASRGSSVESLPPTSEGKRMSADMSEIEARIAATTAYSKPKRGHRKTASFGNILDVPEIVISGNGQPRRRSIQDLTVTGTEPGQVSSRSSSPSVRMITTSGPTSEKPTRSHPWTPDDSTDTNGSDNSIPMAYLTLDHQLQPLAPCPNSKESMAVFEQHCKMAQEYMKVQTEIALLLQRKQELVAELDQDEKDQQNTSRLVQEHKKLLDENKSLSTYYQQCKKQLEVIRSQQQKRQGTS
# [35] = target: T30, PIK3CB (Homo sapiens, UniProt P42338); experiment: KinomeScan; format: binding; conditions: read-out: % control
# T30 construct: purchased DiscoveRx KINOMEscan
# [36] = test system: BaF3-TEL-EGFR; experiment: Anti-proliferation, BaF3 isogenic cell lines (CellTiter-Glo); format: cell-based; conditions: Mus musculus, 72 hours, triplet testing
# [37] = target: T31, NEK4 (Homo sapiens, UniProt P51957); experiment: KinomeScan; format: binding; conditions: read-out: % control
# T31 construct: purchased DiscoveRx KINOMEscan
# [38] = target: T32, CSNK1D (Homo sapiens, UniProt P48730); experiment: KinomeScan; format: binding; conditions: read-out: % control
# T32 construct: purchased DiscoveRx KINOMEscan
# [39] = target: T33, MTOR (Homo sapiens, UniProt P42345); experiment: KinomeScan; format: binding; conditions: read-out: % control
# T33 construct: purchased DiscoveRx KINOMEscan
# [40] = target: T34, CDC2L1 (Homo sapiens, UniProt P21127); experiment: KinomeScan; format: binding; conditions: read-out: % control
# T34 construct: purchased DiscoveRx KINOMEscan
# [41] = target: T35, ACVR2B (Homo sapiens, UniProt Q13705); experiment: KinomeScan; format: binding; conditions: read-out: % control
# T35 construct: purchased DiscoveRx KINOMEscan
# [42] = target: T36, YANK2 (Homo sapiens, UniProt Q9NY57); experiment: KinomeScan; format: binding; conditions: read-out: % control
# T36 construct: purchased DiscoveRx KINOMEscan
# [43] = target: T37, INSRR (Homo sapiens, UniProt P14616); experiment: KinomeScan; format: binding; conditions: read-out: % control
# T37 construct: purchased DiscoveRx KINOMEscan
# [44] = target: T38, RSK2(Kin.Dom.1-N-terminal) (Homo sapiens, UniProt P51812); experiment: KinomeScan; format: binding; conditions: read-out: % control
# T38 construct: RSK2(Kin.Dom.1-N-terminal); purchased DiscoveRx KINOMEscan
smiles,measurement,setting,value
C=CC(=O)N1CCC[C@@H](n2nc(-c3ccc(OCc4cccc(C)n4)c(Cl)c3)c3c(N)ncnc32)C1 [CHMFL-EGFR-26],remaining binding at 1 µM,[1],100%
same,remaining binding at 1 µM,[2],96%
same,remaining binding at 1 µM,[3],18%
same,GI50,[4],340 nM
same,remaining binding at 1 µM,[5],96%
same,remaining binding at 1 µM,[6],100%
same,remaining binding at 1 µM,[7],100%
same,remaining binding at 1 µM,[8],39%
same,remaining binding at 1 µM,[9],100%
same,remaining binding at 1 µM,[10],13%
same,remaining binding at 1 µM,[11],86%
same,remaining binding at 1 µM,[12],93%
same,remaining binding at 1 µM,[13],92%
same,remaining binding at 1 µM,[14],86%
same,% control,[15],99%
same,remaining binding at 1 µM,[16],100%
same,remaining binding at 1 µM,[17],100%
same,remaining binding at 1 µM,[18],86%
same,remaining binding at 1 µM,[19],89%
same,GI50,[20],< 0.3 nM
same,remaining binding at 1 µM,[21],76%
same,remaining binding at 1 µM,[22],100%
same,remaining binding at 1 µM,[23],89%
same,remaining binding at 1 µM,[24],87%
same,remaining binding at 1 µM,[25],91%
same,remaining binding at 1 µM,[26],100%
same,GI50,[27],6 nM
same,remaining binding at 1 µM,[28],100%
same,remaining binding at 1 µM,[29],41%
same,% control,[30],100%
same,remaining binding at 1 µM,[31],92%
same,remaining binding at 1 µM,[32],100%
same,remaining binding at 1 µM,[33],100%
same,remaining binding at 1 µM,[34],100%
same,remaining binding at 1 µM,[35],94%
same,GI50,[36],5400 nM
same,remaining binding at 1 µM,[37],100%
same,remaining binding at 1 µM,[38],95%
same,remaining binding at 1 µM,[39],100%
same,remaining binding at 1 µM,[40],86%
same,remaining binding at 1 µM,[41],85%
same,remaining binding at 1 µM,[42],5.8%
same,remaining binding at 1 µM,[43],100%
same,remaining binding at 1 µM,[44],95%
